From US9926330B2, “Inhibitors of IRAK4 activity” (MERCK SHARP & DOHME CORP., priority 2014, dated 2018) come the findings set out here.

Sequence of GST tagged IRAK4 (Q9NWZ3 whole entry): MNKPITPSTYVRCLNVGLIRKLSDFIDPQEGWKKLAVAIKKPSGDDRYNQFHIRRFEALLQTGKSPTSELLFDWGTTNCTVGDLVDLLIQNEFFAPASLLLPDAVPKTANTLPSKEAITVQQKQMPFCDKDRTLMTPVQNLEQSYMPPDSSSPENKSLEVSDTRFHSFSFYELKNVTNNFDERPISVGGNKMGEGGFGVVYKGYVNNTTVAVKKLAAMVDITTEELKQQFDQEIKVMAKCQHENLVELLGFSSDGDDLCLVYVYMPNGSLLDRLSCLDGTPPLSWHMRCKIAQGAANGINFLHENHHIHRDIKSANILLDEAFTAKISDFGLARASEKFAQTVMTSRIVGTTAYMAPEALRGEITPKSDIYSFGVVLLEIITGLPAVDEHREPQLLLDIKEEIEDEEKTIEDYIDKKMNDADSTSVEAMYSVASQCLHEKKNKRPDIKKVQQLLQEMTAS

The assay addresses GST tagged IRAK4 (Homo sapiens (Human), UniProt Q9NWZ3). The assay can be described thus: IRAK4 Kinase Assay (IMAP fluorescence polarization). The format is biochemical. The note with it: 0.5 nM GST tagged IRAK4, 100 nM fluorescent peptide substrate RP7030, 100 μM ATP, 30 minutes at 25° C., IMAP FP readout. As to the method:
The kinase activity of IRAK4 is determined by its ability to catalyze the phosphorylation of a fluorescent polypeptide substrate. The extent of phosphorylation is measured using the IMAP technology (Molecular Devices) where the phosphorylated fluorescent substrate binds to the large M(III)-based nanoparticles which reduces the rotational speed of the substrate and thus increases its fluorescent polarization (FP).
20 μL reaction mixture contains 10 mM TriHCl, pH 7.2, 0.5 nM GST tagged IRAK4 (SignalChem), 100 nM fluorescent peptide substrate (RP7030, Molecular Devices), 100 μM ATP, 1 mM DDT, 1 mM MgCl2, and 0.01% Tween 20. The reaction is initiated by the addition of ATP. After incubation for 30 minutes at 25° C., 60 μL of Progressive IMAP Reagent (Molecular Devices) is added to stop the reaction. Change in RP7030's FP is determined by a FP reader (Analyst HT, LJL BioSystems).
On the technique in general: Polarisation of emitted light reports the rotation of a fluorescent probe.
The term IC50 denotes the concentration needed to halve the response being measured. For `Cc1ccc2ncnc(N[C@H]3CC[C@H](NC4CCOCC4)CC3)c2c1` [Example 2-17, (trans)-N1-(6-methylquinazolin-4-yl)-N4-(tetrahydro-2H-pyran-4-yl)cyclohexane-1,4-diamine], the IC50 came to 0.077 µM.
On to `Cc1ccc2ncnc(N[C@H]3CC[C@H](NCc4cccs4)CC3)c2c1` [Example 2-20, trans-N-(6-methylquinazolin-4-yl)-N′-(thiophen-2-ylmethyl)cyclohexane-1,4-diamine], for which the IC50 is 0.045 µM.
In turn, `Cc1ccc2ncnc(N[C@H]3CC[C@H](N4CC(F)C4)CC3)c2c1` [Example 2-3, N-[trans-4-(3-fluoroazetidin-1-yl)cyclohexyl]-6-methylquinazolin-4-amine] showed a half-inhibitory concentration (IC50) of 0.094 µM.
Molecule `C=Cc1ccc2ncnc(NC3CCC(N(C)C)CC3)c2c1` (stereo not shown) [Example 3-2, N′-(6-ethenylquinazolin-4-yl)-N,N-dimethylcyclohexane-1,4-diamine] yielded an IC50 of 0.007 µM.
In the case of `Cc1ccc2ncnc(N[C@H]3CC[C@@H](N4CCNC(=O)C4)CC3)c2c1` [Example 2-4, 4-{cis-4-[(6-methylquinazolin-4-yl)amino]cyclohexyl}piperazin-2-one] it was 2.19 µM; in that of `Cc1ccc2ncnc(NC3CCC(N4CCCC(C(F)(F)F)C4)CC3)c2c1` (stereo not shown) [Example 2-13, 6-methyl-N-{4-[3-(trifluoromethyl)piperidin-1-yl]cyclohexyl}quinazolin-4-amine], 0.017 µM.
In turn, `Cc1ccc2ncnc(N[C@H]3CC[C@H](N4CCC(F)(F)C4)CC3)c2c1` [Example 2-8, N-[trans-4-(3,3-difluoropyrrolidin-1-yl)cyclohexyl]-6-methylquinazolin-4-amine] had a 50% inhibitory concentration (IC50) of 0.234 µM.
With `Cc1ccc2ncnc(N[C@H]3CC[C@H](N[C@@H](C)C4CC4)CC3)c2c1` [Example 2-21, trans-N-[(1S)-1-cyclopropylethyl]-N′-(6-methylquinazolin-4-yl)cyclohexane-1,4-diamine], the half-maximal inhibitory concentration (IC50) was 0.073 µM.
The same measure for `CN(C)[C@H]1CC[C@H](Nc2ncnc3ccc(CO)cc23)CC1` [Example 8-1, (4-(((trans)-4-(dimethylamino)cyclohexyl)amino)quinazolin-6-yl)methanol]: 0.029 µM; for `Cc1ccc2ncnc(N[C@H]3CC[C@H](N4CC(O)C4)CC3)c2c1` [Example 2-6, 1-{trans-4-[(6-methylquinazolin-4-yl)amino]cyclohexyl}azetidin-3-ol]: 2.35 µM.
In the case of `Cc1ccc2ncnc(N[C@H]3CC[C@H](N4CCOCC4)CC3)c2c1` [Example 1-3, 6-methyl-N-(trans-4-morpholin-4-ylcyclohexyl)quinazolin-4-amine], the 50% inhibitory concentration (IC50) amounted to 0.012 µM.
Consider `Cc1ccc2ncnc(NC3CCC(N4CCC(C(F)(F)F)CC4)CC3)c2c1` (stereo not shown) [Example 2-11, 6-methyl-N-{4-[4-(trifluoromethyl)piperidin-1-yl]cyclohexyl}quinazolin-4-amine], for which half-maximal inhibition (IC50) was put at 0.088 µM.
In turn, `Cc1ccc2ncnc(N[C@H]3CC[C@H](N[C@@H](C)C(F)F)CC3)c2c1` [Example 2-30, trans-N-[(1S)-2,2-difluoro-1-methylethyl]-N′-(6-methylquinazolin-4-yl)cyclohexane-1,4-diamine] yielded an IC50 of 0.126 µM.
`Cc1cc2c(N[C@H]3CC[C@H](N4CCOCC4)CC3)ncnc2cc1F` [Example 1-5, 7-fluoro-6-methyl-N-(trans-4-morpholin-4-ylcyclohexyl)quinazolin-4-amine] gave an IC50 of 0.032 µM.
In the case of `Cc1ccc2ncnc(N[C@H]3CC[C@H](NCc4ccnn4C)CC3)c2c1` [Example 2-26, trans-N-[(1-methyl-1H-pyrazol-5-yl)methyl]-N′-(6-methylquinazolin-4-yl)cyclohexane-1,4-diamine] it was 0.047 µM.
`Cc1ccc2ncnc(NC3CCC(N4CCCCC4C(F)(F)F)CC3)c2c1` (stereo not shown) [Example 2-15, 6-methyl-N-{4-[2-(trifluoromethyl)piperidin-1-yl]cyclohexyl}quinazolin-4-amine] had an IC50 of 1.76 µM.
